From patent US6451831B1, “Agent for hypoalbuminaemia” (Nippon Zoki Pharmaceutical Co., Ltd., priority 2001, dated 2002)

How the values were obtained:
[1] = tested on: patients suffering from hypoalbuminaemia (serum albumin value less than 3.0 g/dL); assay: Clinical test: serum albumin values in patients suffering from hypoalbuminaemia; format: in vivo, human
Experimental: The compound of the present invention (Compound 21 ) was administered to 6 patients suffering from hypoalbuminaemia (serum albumin value was less than 3.0 g/dL) at the dose of 200 mg/day (dosage for only Patient 1 was 400 mg/day). Serum albumin values were compared between before and after administration for 24 weeks (after 16 weeks in case of only Patient 2). […] In another case of tested subjects showing a normal value of serum albumin, any change of the value was not noted by the administration of the compounds of the present invention.

patients = assay: Clinical tests: toxicity and side effects; format: in vivo, human; details: clinically confirmed

CN1C(=O)NC(=O)C1O (stereo not drawn) [Compound 21, 5-Hydroxy-1-methylhydantoin]
Effect on serum albumin values (in words) ([1]; 6 patients with hypoalbuminaemia, 200 mg/day (Patient 1: 400 mg/day), 24 weeks (Patient 2: 16 weeks), paired t-test): significantly increased | Serum albumin value After Administration for 24 weeks ([1]; Patient 1, 400 mg/day, 24 weeks, before administration 1.7 g/dL): 2.1 g/dL | Serum albumin value After Administration for 24 weeks ([1]; Patient 2, 200 mg/day, after 16 weeks according to text, before administration 2.0 g/dL): 2.3 g/dL | Serum albumin value After Administration for 24 weeks ([1]; Patient 3, 200 mg/day, 24 weeks, before administration 2.3 g/dL): 3.4 g/dL | Serum albumin value After Administration for 24 weeks ([1]; Patient 4, 200 mg/day, 24 weeks, before administration 2.4 g/dL): 2.7 g/dL | Serum albumin value After Administration for 24 weeks ([1]; Patient 5, 200 mg/day, 24 weeks, before administration 2.5 g/dL): 3.2 g/dL | Serum albumin value After Administration for 24 weeks ([1]; Patient 6, 200 mg/day, 24 weeks, before administration 2.7 g/dL): 3.0 g/dL | Serum albumin value After Administration for 24 weeks, Mean Value ([1]; mean of 6 patients, before administration 2.3 ± 0.2 g/dL, p < 0.01, paired t-test): 2.8 ± 0.2 g/dL | Toxicity and side effects (in words) (patients): low toxicity and lower side effects
